Assay results reported in patent US20060189512A1, “Compositions containing botanical extracts rich in phlorizin and methods for using such compositions in blood glucose modification and to affect aging” (priority 2005, published 2006).

Target: T1, SIRT1 (histone deacetylase) (Homo sapiens, UniProt Q96EB6)
T1 construct: purchased BIOMOL Research Laboratories, Inc., Plymouth Meeting, Pa
T1 sequence (Q96EB6 1-747): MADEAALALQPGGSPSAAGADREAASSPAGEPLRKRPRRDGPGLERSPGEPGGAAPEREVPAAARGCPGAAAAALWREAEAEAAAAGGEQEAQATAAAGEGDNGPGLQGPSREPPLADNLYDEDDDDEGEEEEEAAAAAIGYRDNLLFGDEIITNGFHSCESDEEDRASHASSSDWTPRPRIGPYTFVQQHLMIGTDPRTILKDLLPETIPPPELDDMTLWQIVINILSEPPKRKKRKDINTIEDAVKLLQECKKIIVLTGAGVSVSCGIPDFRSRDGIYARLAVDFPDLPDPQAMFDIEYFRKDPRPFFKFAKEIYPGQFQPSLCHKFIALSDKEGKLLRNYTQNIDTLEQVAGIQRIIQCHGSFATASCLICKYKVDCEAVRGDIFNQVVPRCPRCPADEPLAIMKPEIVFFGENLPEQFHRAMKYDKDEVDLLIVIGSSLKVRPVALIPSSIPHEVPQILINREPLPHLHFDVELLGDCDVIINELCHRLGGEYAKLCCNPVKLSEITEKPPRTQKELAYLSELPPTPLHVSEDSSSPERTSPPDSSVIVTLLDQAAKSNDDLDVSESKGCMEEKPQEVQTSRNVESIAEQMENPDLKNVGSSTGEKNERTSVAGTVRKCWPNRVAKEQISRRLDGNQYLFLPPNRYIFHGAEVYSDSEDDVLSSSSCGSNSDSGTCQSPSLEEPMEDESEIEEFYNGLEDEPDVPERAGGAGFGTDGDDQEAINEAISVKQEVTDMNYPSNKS
Test: Cell-based fluorescence deacetylase assay, SIRT1 Fluorimetric Drug Discovery Kit (BIOMOL)
From the text: A cell-based fluorescence deacetylase assay, SIRT1 Fluorimetric Drug Discovery Kit, obtained from BIOMOL Research Laboratories, Inc., Plymouth Meeting, Pa. was used to measure the effects of various polyphenols in apple extract on histone deacetylase activity.

| Histone deacetylase activity (concentration 100 micromolar) [× baseline] | Compound | Histone deacetylase activity (concentration 500 micromolar) |
| --- | --- | --- |
| – | O=C(CCc1ccc(O)cc1)c1c(O)cc(O)cc1O [Phloretin] | 1.94 × baseline |
| 1.36 | O=C(CCc1ccc(O)cc1)c1c(O)cc(O)cc1O[C@@H]1O[C@H](CO)[C@@H](O)[C@H](O)[C@H]1O [Phlorizin] | – |
| – | O=c1c(O)c(-c2ccc(O)c(O)c2)oc2cc(O)cc(O)c12 [Quercetin] | 4.59 × baseline |
| – | Catechins | 1.26-1.53 × baseline |
